For data set [1], the system named is Toxoplasma gondii tachyzoites of the RH strain. The experiment in a line: microbe, parasite or virus in culture. As to conditions: 168 h; for inhibition at 1 µM: read-out: Inhibition of tachyzoite proliferation.
For data set [2] the test system is unchanged. As to conditions: for IC50: 7 days of treatment.
The conditions of data set [3]: cited from earlier work.
In data set [4] the test system is Toxoplasma gondii tachyzoites of the RH strain. Kind of data set: microbe, parasite or virus in culture. The format is cell-based. As to conditions: Toxoplasma gondii; for activity at 0.125 µM: 125 nM; for activity at […]: 250 nM.
Data set [5] relates to T. gondii tachyzoites. Kind of data set: Transmission electron microscopy of treated tachyzoites. The format is cell-based, Toxoplasma gondii. To be noted: 48 h. On the procedure: NHDF cultures infected with T. gondii were treated with compounds and fixed with 2.5% glutaraldehyde (EM Grade—Ted Pella Inc., Redding, CA, USA) in 0.1 M sodium cacodylate buffer pH 7.4 (Ted Pella Inc.). Cells were post-fixed with 1% osmium tetroxide, 1.25% potassium ferrocyanide, and 5 mM CaCl2, in 0.1 M sodium cacodylate buffer (pH 7.4). The sample fixation and processing for microscopy were performed as previously described. Samples were dehydrated in alcohol solutions of increasing concentrations (35–100%) and embedded in epoxy resin (Polybed 812, Polysciences). Ultrathin sections were collected in copper grids 300 mesh (Ted Pella Inc.), stained with uranyl acetate and lead citrate, and then observed in a Fei TecNai G2 120 kV Spirit Electron Microscope (FEI Company, Eindhoven, The Netherlands).

For data set [6] the following is noted: Rat, cited from earlier work; for Plasma concentration (Cmax): ref Table S3 supplementary refs 3, 10, 12, 21; for Cmax: read-out: Plasma concentration (Cmax).
The next data set in a line: in vitro. To be noted: human.
The subject of data set [7] is T. gondii tachyzoites. To be noted: ref [23], read-out: IC50 for T. gondii tachyzoites, cited from earlier work.
Data set [8] can be described thus: Cytotoxicity assay in NHDF cells (MTS). To be noted: human.
Data set [9] relates to T. gondii tachyzoites. The experiment in a line: Immunofluorescence microscopy of treated tachyzoites (aberrant cell division, rhoptry morphology). To be noted: 1 µM, 24 h.
Description: Rabbit anti-IMC1 (1:1000) and anti-ARO (1:1000) (kindly provided by Dr. Dominique Soldati, Universite de Geneve, Switzerland) were used to label the mother cell and daughter cell pellicles throughout the endodyogeny process and rhoptries, respectively. Mouse anti-SAG1 (1:200; kindly donated by Dr. Tiago Mineo, Universidade Federal de Uberlândia) was used to label the parasite plasma membrane. DAPI (2 µg/mL; Sigma-Aldrich, St. Louis, MO, USA) was used to label the DNA. […] After labeling with antibodies, the coverslips were mounted onto slides using Prolong gold (Life Technologies), and samples were examined on a Zeiss Axio Observer Z1 microscope (Baden-Württemberg, Germany) or Olympus BX60 microscope (Shinjuku City, Tokyo, Japan).
For data set [10] the following is noted: cited from earlier work. The source holds these as a separate data set.
Setting [11] is: NHDF, read-out: IC50 (μM) in Tachyzoites, RH strain in NHDF cells, plaque assay, 7 days of treatment.
[12] abbreviates: read-out: IC50 against T. gondii proliferation, RH strain, 7 days of treatment.
Setting [13] is: Human, ref Table S3 supplementary refs 1, 4, 8, 11, 13, 15, 17, 18, 19, 23, 31.
The mark [14] stands for this setting: read-out: Plasma concentration (Cmax), Human, ref Table S3 supplementary refs 1, 4, 8, 11, 13, 15, 17, 18, 19, 23.
The mark [15] stands for this setting: 24 h of treatment, read-out: Proliferation index (%).
Where [16] appears, read: ref Table S3 supplementary refs 3, 10, 12, 28, 32.
Where [17] appears, read: read-out: IC50 (μM) in Tachyzoites, RH strain in NHDF cells, plaque assay.
The mark [18] stands for this setting: read-out: Plasma concentration (Cmax), Human, ref Table S3 supplementary refs 20, 22, 25, 31.

Like-named read-outs stand apart in the source and are kept apart here. Where only a bound is given, the exact number is not on record here.

As to `O=c1[nH]c2ccccc2n1C1CCN(CCCC(c2ccc(F)cc2)c2ccc(F)cc2)CC1` [Pimozide], the IC50 in [1] (setting [11]) was 0.64 ± 0.15 µM.
As to `C[C@@H]1O[C@@H](O[C@@H]2C=C3CC[C@@H]4[C@H](CC[C@]5(C)[C@@H](c6ccc(=O)oc6)CC[C@]45O)[C@@]3(C)CC2)[C@H](O)[C@H](O)[C@H]1O` [proscillaridin, Proscillaridin], the inhibition at 1 µM in [1] is at least 70%. In addition, in [2] (1 µM, NHDF host cells), the “Cytotoxicity for the host cells during the initial screening” value is listed as “signs of cytotoxicity for the host cells”.
Turning to `C[C@H]1O[C@@H](O[C@H]2[C@@H](O)C[C@H](O[C@H]3[C@@H](O)C[C@H](O[C@H]4CC[C@@]5(C)[C@H](CC[C@@H]6[C@@H]5CC[C@]5(C)[C@@H](C7=CC(=O)OC7)CC[C@]65O)C4)O[C@@H]3C)O[C@@H]2C)C[C@H](O)[C@@H]1O` [digitoxin, Digitoxin], the inhibition at 1 µM in data set [1] is at least 70%.
As to `COc1cccc2c1C(=O)c1c(O)c3c(c(O)c1C2=O)C[C@@](O)(C(=O)CO)C[C@@H]3O[C@H]1C[C@H](N)[C@H](O)[C@H](C)O1` [doxorubicin, Doxorubicin], in data set [1], the inhibition at 1 µM was at least 70%.
With `CC(C)(C)Cn1c(N)nc2ccc(-c3[nH]c(C(C)(C)C)nc3-c3ccc(F)cc3)nc21` [LY2228820], the IC50 was under 0.1 µM in data set [1] (setting [12]) and 0.04 µM in data set [1] (setting [11]).
Take `Cc1ccc(C(=O)Nc2ccc(CN3CCN(C)CC3)c(C(F)(F)F)c2)cc1C#Cc1cnc2cccnn12` [Ponatinib]: the IC50 in [1] (setting [11]) is 0.33 ± 0.03 µM. Besides, in data set [3] (setting [13]), the “Plasma concentration (Cmax)” value is recorded as 123 ng/mL. Also, the Cmax in data set [3] (setting [14]) was 231 nM.
On to `COC(=O)C1=C(C)NC(C)=C(C(=O)OCCN2CCN(C(c3ccccc3)c3ccccc3)CC2)C1c1cccc([N+](=O)[O-])c1` (stereo not drawn) [Manidipine], for which, in [1] (setting [11]), the IC50 stood at 0.74 ± 0.09 µM. Further, in data set [3] (human, in vivo), the Cmax was 9 nM and the “Plasma concentration (Cmax)” value is reported as 5.53 ng/mL.
`C[C@@H]1C[C@@H]([C@H](O)CC2CC(=O)NC(=O)C2)C(=O)[C@@H](C)C1` [Cycloheximide]: in data set [4] (31.2 nM, 24 h of treatment, read-out: Proliferation index (%)), the activity at 0.0312 µM was determined as 47.9%. Also, in data set [4] (62.5 nM, 24 h, read-out: Inhibition of parasite proliferation), the inhibition at 0.0625 µM was 75 to 80%. The activity at 0.0625 µM in data set [4] (62.5 nM, 24 h of treatment, read-out: Proliferation index (%)) was 30.5%. Besides, the activity at 0.125 µM in data set [4] (setting [15]) turned out to be 33%. Besides, the IC50 is at most 0.03 µM in data set [1] (setting [12]); 0.02 µM in data set [2] (setting [17]); under 0.03 µM in data set [2] (read-out: IC50 against T. gondii proliferation, RH strain). The “Effect on T. gondii ultrastructure (TEM)” value in the data set on T. gondii tachyzoites [5] (62.5 nM) was “increased endoplasmic reticulum area”; with T. gondii tachyzoites [5] (125 nM), “vacuoles containing parasites were completely lysed”. Besides, the “Plasma concentration (Cmax)” value in data set [6] is 43.1 ng/mL. The Cmax in [6] (setting [16]) was 153 nM. This molecule also displayed a CC50 at 7 days in “in vitro” of 6080 ± 4630 nM.
For the molecule `C[C@H]1O[C@@H](O[C@H]2[C@@H](O)C[C@H](O[C@H]3[C@@H](O)C[C@H](O[C@H]4CC[C@@]5(C)[C@H](CC[C@@H]6[C@@H]5C[C@@H](O)[C@]5(C)[C@@H](C7=CC(=O)OC7)CC[C@]65O)C4)O[C@@H]3C)O[C@@H]2C)C[C@H](O)[C@@H]1O` [Digoxin], the figures for the IC50 in data set [1] (setting [12]) and in [1] (setting [11]) were at most 0.03 µM and 0.03 ± 0.01 µM, respectively. Moreover, the CC50 at 7 days in the data set “in vitro” was found to be 340 ± 320 nM.
Take `COc1cc2c3cc1Oc1c(OC)c(OC)cc4c1[C@@H](Cc1ccc(O)c(c1)Oc1ccc(cc1)C[C@@H]3N(C)CC2)N(C)CC4` [Berbamine]: the IC50 in data set [1] (setting [11]) came out at 0.31 ± 0.03 µM. Further, the “Plasma concentration (Cmax)” value in data set [6] is reported as 32.6 ng/mL. For the same molecule, the Cmax in data set [6] (setting [16]) was 53.6 nM. In “in vitro”, the CC50 at 7 days was found to be 4610 ± 7520 nM and the selectivity ratio at 7 days was 15.
As to `COc1c(C)c2c(c(O)c1C/C=C(\C)CCC(=O)O)C(=O)OC2` [Mycophenolic acid], in data set [4] (setting [15]), the activity at 0.125 µM was 61.3%. Also, the inhibition at […] in [4] (250 nM (0.25 µM), 24 h, read-out: Inhibition of parasite proliferation) lay in the range of 55 to 60%. In addition, the activity at […] in data set [4] (setting [15]) amounted to 42%. The IC50 in the data set on T. gondii tachyzoites [7] (24 h of treatment) was 211000 nM; in data set [1] (setting [12]), under 0.1 µM; in data set [1] (setting [11]) it was 0.07 ± 0.01 µM. Besides, the “Effect on T. gondii ultrastructure (TEM)” value with T. gondii tachyzoites [5] (250 nM) was “affected the tachyzoites’ division process”. Besides, the selectivity ratio at 7 days in “in vitro” amounted to 340. For the same molecule, in data set [3] (Human, ref Table S3 supplementary refs 20, 25), the “Plasma concentration (Cmax)” value was 24300 ng/mL. Further, the Cmax in data set [3] (setting [18]) is 75800 nM. In [8], this molecule yielded a CC50 at 7 days of 23800 ± 32000 nM.
As to `CCCCc1oc2ccccc2c1C(=O)c1cc(I)c(OCCN(CC)CC)c(I)c1` [amiodarone, Amiodarone], the “Cytotoxicity for the host cells during the initial screening” value in data set [2] is on record as “signs of cytotoxicity for the host cells”.
In the case of `O=C(Nc1ccc([N+](=O)[O-])cc1Cl)c1cc(Cl)ccc1O` [Niclosamide], the IC50 in data set [1] (setting [11]) stood at 0.36 ± 0.02 µM. Further, the Cmax in data set [6] (ref Table S3 supplementary refs 21, 29) was 1080 nM; in [3] (setting [18]) it was 3900 nM. For the same molecule, the selectivity ratio at 7 days in the data set “in vitro” worked out at 8. In data set [3] (Human, ref Table S3 supplementary ref 22), the “Plasma concentration (Cmax)” value is 1280 ng/mL. For the same molecule, the CC50 at 7 days in data set [8] was 3050 ± 80 nM.
Consider `CCc1nc(N)nc(N)c1-c1ccc(Cl)cc1` [Pyrimethamine], for which, in data set [4] (setting [15]), the activity at 0.125 µM worked out at 87.3% and the activity at […] amounted to 56.6%. For the same molecule, the activity at 0.5 µM in data set [4] (500 nM, 24 h of treatment, read-out: Proliferation index (%)) worked out at 39.2%. In addition, in data set [4] (1000 nM, 24 h of treatment, read-out: Proliferation index (%)), the activity at 1 µM stood at 22%.
With `CCC(C)n1ncn(-c2ccc(N3CCN(c4ccc(OCC5COC(Cn6cncn6)(c6ccc(Cl)cc6Cl)O5)cc4)CC3)cc2)c1=O` (stereo not drawn) [itraconazole, Itraconazole], in data set [1], the inhibition at 1 µM is at least 70%.
For the molecule `CC[C@H]1CN2CCc3cc(OC)c(OC)cc3[C@@H]2C[C@@H]1C[C@H]1NCCc2cc(OC)c(OC)cc21` [Emetine], the IC50 in data set [1] (setting [12]) was under 0.1 µM; in data set [1] (setting [11]), 0.05 ± 0.01 µM. For the same molecule, in “in vitro”, the CC50 at 7 days was found to be 1020 ± 190 nM. Further, the “Plasma concentration (Cmax)” value in data set [3] (setting [13]) is 9.6 ng/mL. Also, the Cmax in data set [3] (setting [14]) was 20 nM.
On to `C[C@H]1c2cccc(O)c2C(=O)C2=C(O)[C@]3(O)C(=O)C(C(N)=O)=C(O)[C@@H](N(C)C)[C@@H]3[C@@H](O)[C@@H]21` [doxycycline, Doxycycline], for which, in data set [1], the inhibition at 1 µM was at least 70%.
Regarding `COc1cc(NC(=O)Nc2cccc(CNC(=O)O[C@H]3CCOC3)c2)ccc1-c1cnco1` [Merimepodib], in data set [4] (1.5 µM, 24 h, read-out: Inhibition of parasite proliferation), the inhibition at […] was in the range of 55 to 60%. Also, in data set [4] (2.0 µM, 24 h, read-out: Inhibition of parasite proliferation), the inhibition at 2 µM lay in the range of 55 to 60%. The IC50 is 780 nM with T. gondii tachyzoites [7] (72 h of treatment), under 0.5 µM in [1] (setting [11]) and 0.48 ± 0.08 µM in [2] (setting [17]). In addition, in [3] (setting [13]), the “Plasma concentration (Cmax)” value is given as 1590 ng/mL. Besides, in [3] (setting [14]), the Cmax is 5510 nM.
In the case of Ivermectin, the “Effect on T. gondii ultrastructure (TEM)” value with T. gondii tachyzoites [5] (1 µM) is “induced the formation of myelin-like structures”. For the same molecule, the “Effect on tachyzoite cell division (fluorescence microscopy)” value in the data set with T. gondii tachyzoites [9] is recorded as “significant cell division arrestment”. For the same molecule, the “Plasma concentration (Cmax)” value in data set [3] (setting [13]) is 260.5 ng/mL; in data set [10] (Mouse, ref Table S3 supplementary ref 16), 642.3 ng/mL. Further, the Cmax in data set [3] (setting [14]) is 298 nM; in data set [10] (read-out: Plasma concentration (Cmax), Mouse/Mice, ref Table S3 supplementary refs 16, 27) it was 734 nM.

Source of the values: PMC11676817, “Antiproliferative and Morphological Analysis Triggered by Drugs Contained in the Medicines for Malaria Venture COVID-Box Against Toxoplasma gondii Tachyzoites” (Microorganisms, 2024).
